In patent EP0521692A2, “Inhibition of tumor cell metastasis potential and invasiveness by chemically-defined oligosaccharides, their derivatives, mimetics and antibodies directed to them” (The Biomembrane Institute, priority 1991, dated 1993):

Key:
[1] = tested on: BL6 clone of B16 melanoma cell line; assay: Lung colony formation after i.v. injection of BL6 cells preincubated with oligosaccharide; type: in vivo, C57/BL mice; conditions: for reductions of metastatic colonies in lung: BL6 cells preincubated with the sugar, then intravenous injection, 0.1 M, 37°C, 10 minutes in the majority of experiments; for total colony number reduced to % of control value: second independent series (Figure 1): preincubation with 0.1 M, 2 x 10^4 cells i.v., counted at 21 days
Protocol: The highly metastatic BL6 clone of B16 melanoma cell line was obtained originally from Dr. Jean Starkey (Montana State Univ., Bozeman, MT), and clones were reselected in syngeneic C57/BL mice according to their metastatic potential. C57/BL mice were maintained in plastic cages under filtered air atmosphere and provided with water and food pellets ad lib. Cells were cultured in RPMI 1640 supplemented with 2 mM glutamine and 10% fetal calf serum (FCS), and detached with phosphate buffered saline (PBS) containing 2 mM EDTA. Viability was tested by trypan blue exclusion test.
A suspension of BL6 cells (1-3 x 10⁶ cells/ml RPMI 1640 medium) was prepared and aliquots were incubated in the presence or absence of various oligosaccharides at various concentrations, at 37°C for 5-10 minutes. Following incubation, typically, 3 x 10⁴ or 2 x 10⁴ cells (with or without oligosaccharide pretreatment) per 200 µl were injected via tail vein into 8-week-old female mice. After 18-21 days, mice were killed, lungs were fixed in 10% formaldehyde in PBS (pH 7.4), and tumor cell colonies were counted under a dissecting microscope, thus providing background values of metastatic melanoma colony number in lung under these conditions. Data on number and size of colonies were statistically treated by the analysis of variance (ANOVA) procedure. Colonies with a diameter of 1 mm or greater were considered large-size and those with a diameter less than 1 mm were considered small-size.
(§1) For one experiment, BL6 cells were incubated with various concentrations of lactose, lacto-N-tetrose (Galβ1→3GlcNAcβl→3Galβ1→4GLc), methyl β-D-lactoside, or phenyl β-D-thiolactoside for various durations. In the majority of experiments, a concentration of 0.1 M was used and cells were incubated at 37°C for 10 minutes, separated from sugar-containing medium by mild centrifugation at 400 x g for 10 minutes, resuspended in RPMI 1640, and injected (3 x 10⁴ cells in 0.2 ml suspension) via tail vein. For some experiments, 2 x 10⁴ cells were injected and colonies were counted at 21 days. Viability and cell growth ability of BL6 cells after incubation in various sugar solutions were tested by trypan blue exclusion test, and by plating in RPMI 1640 culture under normal conditions in vitro, as well as by subcutaneous inoculation in age-matched C57/BL mice in order to test tumor growth.

[2] = tested on: melanoma cell (BL6) adhesion on endothelial cells (HuVEC); assay: Melanoma cell adhesion on endothelial cells; type: cell-based, mouse; conditions: Figure 5
From the text: (§2) Figure 5 graphically illustrates the melanoma cell (BL6) adhesion on LacCer (Panel A) and on endothelial cells (HuVEC) (Panel B) are inhibited by LacCer and GM3.
GM3 interacts with LacCer, which is highly expressed on endothelial cells. The order of adhesion of the B16 variants onto LacCer-coated solid phase or onto endothelial cells was also in the same order as their metastatic potential. In contrast, integrin-dependent adhesion of the B16 variants was approximately equal for BL6, F10, and F1 (see Figure 4).

[3] = tested on: BL6 cells; assay: In vitro cell growth and thymidine incorporation after incubation with sugar; type: cell-based, mouse
Protocol: as §1

[4] = tested on: B16 melanoma cells; assay: Lung colony formation, oligosaccharide injected i.p. before i.v. inoculation of tumor cells; type: in vivo, C57/BL mice; conditions: 1 ml of 0.25 M or 0.5 M i.p., 10 minutes before i.v. B16 melanoma cells; colonies counted 19 days later (Figure 2)
Protocol: Figure 2 graphically illustrates the effect of prior administration of methyl β-D-lactoside on the number and size of lung colony deposits of BL6 cells. Methyl β-D-lactoside (1 ml dosage) was injected intraperitoneally into C57/BL mice. After 10 minutes, B16 melanoma cells were injected intravenously. Lung colonies were counted and sized at 19 days. Group A represents control animals (not administered methyl β-D-lactoside) and groups B and C represent animals injected with 0.25 M and 0.5 M methyl β-D-lactoside, respectively. For each group, column 1 represents the total number of colonies, column 2 the number of colonies with diameter > 1 mm, and column 3 the number of colonies with diameter < 1 mm. Number of experiments is expressed as "n".
In a separate experiment, the effect of methyl β-D-lactoside on melanoma cell metastasis was determined after administration of the oligosaccharide, followed by inoculation with tumor cells. Specifically, a one ml dosage of methyl β-D-lactoside (at a concentration of 0.25 M or 0.5 M) was injected intraperitoneally in mice. After 10 minutes, B16 melanoma cells were injected intravenously. Lung colonies were counted 19 days later.

[5] = molecular target: T1, GMP-140 (Homo sapiens, UniProt P16109); assay: Binding of platelets to fluorescent polystyrene beads coated with GSL (flow cytometry); conditions: for Binding index, Ratio (Activated/ Non-activated): ratio of binding index of activated to non-activated platelets; for Binding index, Activated platelets: thrombin-activated platelets, GSL-coated sulfate-containing polystyrene beads, MFI relative to non-GSL-coated beads, means of four experiments
T1 sequence (P16109 42-830): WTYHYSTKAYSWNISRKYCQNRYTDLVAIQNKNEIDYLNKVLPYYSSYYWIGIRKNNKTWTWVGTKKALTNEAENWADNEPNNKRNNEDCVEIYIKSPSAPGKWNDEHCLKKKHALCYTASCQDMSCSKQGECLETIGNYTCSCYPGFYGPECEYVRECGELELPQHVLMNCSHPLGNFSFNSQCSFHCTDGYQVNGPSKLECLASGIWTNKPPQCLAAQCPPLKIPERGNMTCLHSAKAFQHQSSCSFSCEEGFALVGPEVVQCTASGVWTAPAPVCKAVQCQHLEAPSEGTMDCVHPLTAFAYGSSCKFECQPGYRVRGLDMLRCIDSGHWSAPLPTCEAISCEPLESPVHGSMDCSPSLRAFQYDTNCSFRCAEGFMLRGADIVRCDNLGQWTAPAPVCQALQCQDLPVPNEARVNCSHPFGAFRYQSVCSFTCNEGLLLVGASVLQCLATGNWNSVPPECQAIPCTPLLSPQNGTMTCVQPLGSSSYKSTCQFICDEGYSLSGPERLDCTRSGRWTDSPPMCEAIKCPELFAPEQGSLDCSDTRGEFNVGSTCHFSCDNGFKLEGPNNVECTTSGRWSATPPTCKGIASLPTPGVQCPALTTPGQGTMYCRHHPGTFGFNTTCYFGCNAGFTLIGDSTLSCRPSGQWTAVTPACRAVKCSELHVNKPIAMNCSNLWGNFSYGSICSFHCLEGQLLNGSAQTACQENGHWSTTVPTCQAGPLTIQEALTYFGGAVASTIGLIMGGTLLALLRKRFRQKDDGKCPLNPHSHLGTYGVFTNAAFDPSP
Protocol: Fluorescent plastic (e.g. polystyrene) beads (diameter ≈ 0.5 µm) are coated with GSL. GSLs are known to be strongly adsorbed on such beads, which allows construction of fluorescent probes containing specific GSLs. Platelets (activated or non-activated) are incubated with such GSL-coated beads, followed by determination of platelet fluorescence intensity by flow cytometry.
Platelets were isolated from"platelet-rich plasma"obtained from the Oregon Red Cross (Portland, OR), and contaminating red blood cells were removed by centrifugation at 80xg for 10 min. Platelets were centrifuged at 300xg for 10 min, and suspended in Tyrode's buffer (pH 6.5) containing 22 mM citrate buffer with 0.35% bovine serum albumin (BSA). Platelet suspension (1x10⁸/ml) was incubated (pH 7.2, 37°C, 5 min) after addition of thrombin (final concentration 1 U/ml). The mixture was then incubated at 37°C for 10 min without stirring. Thrombin-activated platelets were fixed with an equal volume of 2% formaldehyde in phosphate-buffered saline (PBS), pH 7.2, and washed 2x with PBS containing 1% BSA.
Activated and non-activated platelets were fixed with paraformaldehyde in Ca²⁺-free PBS, pH 7.2, washed 2x with Ca^2a+-containing PBS with 1% BSA, resuspended in CA^2a+-PBS with 1% BSA and 0.1% azide, and the number of platelets adjusted to ≈1x10⁹/ml. The cell suspension was stored at 4°C and the binding assay performed within 24 hr.
Fluorescent polystyrene latex beads were obtained from Molecular Probe, Inc., Eugene, OR. They were yellow-green fluorescent beads with a sulfate group at the surface, diameter ≈0.5 µm (actually 0.486 µm). 1x10⁹ beads in 30 µl ETOH were added to 10 µg of GSL solution in 200 µl C=M, mixed well, and dried under an N₂ stream. The residue was resuspended in 200 µl ethanol, sonicated briefly, and dried under an N₂ stream. […]
20 µl of platelet (non-activated or activated) suspension ... paraformaldehyde-fixed -- containing ≈2x10⁷ platelets was mixed with 10 µl of fluorescent GSL-coated beads -- containing ≈2x10⁷ beads, mixed well, […] allowed to stand at 37°C for 30 min. The platelet suspension was mixed with 200 µl Ca²⁺-PBS and analyzed by flow cytometry (EPICS Profile, Coulter Cytometry, Hialeath, FL).
Flow cytometric analyses of platelets alone and beads alone were performed for a gating set to include most signals produced by platelets by excluding signals produced by free beads. The binding index (BI) was calculated as mean fluorescence intensity (MFI) of platelets incubated with fluorescent GSL-coated beads, divided by MFI of platelets incubated with fluorescent non-GSL-coated (control) beads. […]

[6] = tested on: melanoma cell (BL6) adhesion on LacCer; assay: Melanoma cell adhesion on LacCer-coated solid phase; type: cell-based, mouse; conditions: Figure 5, Panel A
From the text: Figure 4 graphically illustrates that melanoma cell adhesion on LacCer is based on GM3-LacCer interaction. The order of metastatic potential is BL6>F10>F1>>WA4.
as §2

Row | Binding index, Ratio (Activated/ Non-activated) [5] | Binding index, Activated platelets [5] | Compound | reductions of metastatic colonies in lung [1] [%] | effect on cell number increase [3] | effect on thymidine incorporation [3] | total colony number reduced to % of control value [1] [%] | further results
1 |  |  | OC[C@H]1O[C@@H](O[C@H]2[C@H](O)[C@@H](O)C(O)O[C@@H]2CO)[C@H](O)[C@@H](O)[C@H]1O (stereo partly drawn) [Lactose] | 26 |  |  |  | 
2 |  |  | CC(=O)N[C@H]1[C@H](O[C@H]2[C@@H](O)[C@@H](CO)O[C@@H](O[C@H]3[C@H](O)[C@@H](O)C(O)O[C@@H]3CO)[C@@H]2O)O[C@H](CO)[C@@H](O)[C@@H]1O[C@@H]1O[C@H](CO)[C@H](O)[C@H](O)[C@H]1O (stereo partly drawn) [lacto-N-tetrose, Galβ1→3GlcNAcβl→3Galβl→4Glc] | 36 |  |  |  | 
3 |  |  | CO[C@@H]1O[C@H](CO)[C@@H](O[C@@H]2O[C@H](CO)[C@H](O)[C@H](O)[C@H]2O)[C@H](O)[C@H]1O [methyl β-D-lactoside] |  | slight in vitro stimulatory effect | slight in vitro stimulatory effect | 35 | B16 melanoma adhesion on endothelial cells [2]: inhibited; reduction of metastatic lung colony number compared to control ([1]; BL6 cells treated with 0.005 M): 8%; reduction of metastatic lung colony number compared to control ([1]; BL6 cells treated with 0.01 M): 16%; reduction of metastatic lung colony number compared to control ([1]; BL6 cells treated with 0.1 M): 43%; lung metastatic colony formation [4]: significant reduction
4 |  |  | OC[C@H]1O[C@@H](O[C@H]2[C@H](O)[C@@H](O)[C@H](Sc3ccccc3)O[C@@H]2CO)[C@H](O)[C@@H](O)[C@H]1O [phenyl β-D-thiolactoside] |  | slight in vitro stimulatory effect | slight in vitro stimulatory effect | 50 | 
5 | 0.7 ± 0.2 | 0.8 ± 0.2 | NeuAcα2→3Galβ1→4GlcNAcβ1→3Galβ1→R [SPG, reference compound] |  |  |  |  | 
6 | 0.7 ± 0.5 | 1.0 ± 0.1 | NeuAcα2→3Galβl→4Glcβl→Cer [GM3] |  |  |  |  | melanoma cell (BL6) adhesion on LacCer [6]: inhibited
